The values below come from article PMC8766756, “Insights on Cancer Cell Inhibition, Subcellular Activities, and Kinase Profile of Phenylacetamides Pending 1H-Imidazol-5-One Variants” (Frontiers in Pharmacology, 2022).

Data set [1] can be described thus: Stability in mouse liver microsomes. The data set is classed as in vitro ADME. The procedure:
The clearance of KIM-161 in MLM or HLM was determined at 37°C as previously described ([Yang et al., 2007]). Both MLM and HLM were obtained from Merck KGaA (Darmstadt, Germany), Cat. No. M9441 (MLM) and M0317 (HLM). The assays were conducted in triplicate in 96-well deep polypropylene plates. […] At five time points, the reaction mixture aliquots were transferred to 96-shallow well stop plates on ice containing acetonitrile with 0.1 µM propafenone. […] The standard curves for the test compound were generated using five concentrations in triplicate that were processed as above but with zero incubation time. The stop plates were centrifuged at 2000g for 10 min, and then, the supernatant aliquots were transferred to a Waters Aquity® UPLC 700 µL 96-well sample plate with cap mat (Waters, Milford, MA). The amount of the compound remaining in the supernatant was quantified by LC/MS/MS using a Waters Xevo TQ MS (electrospray positive mode) coupled to a Waters Aquity® UPLC (BEH column, C18). Propafenone was used as the internal standard. GraphPad® Prism v.5.04 was used for nonlinear fitting of time course data to generate t1/2 values.
(In general: Liver microsomes are a subcellular fraction often used to study metabolism.)

Data set [2] has as its system HCT116 colon cancer cell line. Briefly: MTT antiproliferative assay. The format is cell-based. The conditions noted are these: Homo sapiens, HCT-116. How it is done:
The compounds were screened for their anticancer activities against a variety of cancer cell lines. The cytotoxic effect of the compounds was evaluated using the sulforhodamine B (SRB) cytotoxicity assay for breast cancer line (MCF7) and prostate cancer cell line (PC3) ([Vichai and Kirtikara, 2006]; [Rana et al., 2021]) and 3-(4,5-dimethylthiazol-2-yl)-2,5-diphenyl-2H-tetrazolium bromide (MTT) assay for the colon cancer (HCT116) cell lines ([El-Huneidi et al., 2020]). The CellTiter-Blue® cell viability assay was performed on the various leukemia cell lines, HL60, NB4, and KG1a cells ([Akter et al., 2019]). The IC50 values are illustrated in Table 1.
MCF7 (breast), PC3 (prostate), and HCT116 (colon) cancer cell lines were obtained from ATCC, Manassas, VA, USA. Cells were grown in Roswell Park Memorial Institute-1640 (RPMI-1640) medium (Thermo Fisher Scientific, Inc., Waltham, MA, USA), supplemented with 10% heat inactivated fetal bovine serum (FBS), 50 units/mL of penicillin, and […] of streptomycin and maintained at 37°C in a humidified atmosphere containing 5% CO2. The cells were maintained as “monolayer culture” by serial subculturing.
The test compounds were evaluated for antiproliferative activity using the MTT viability assay against the HCT116 cell line. The cells were seeded in triplicate in 96-well plates at a density of 10 × 10^3 cells/mL in a total volume of 200 µL per well. 0.1% of DMSO was used as a vehicle control. Each well was treated with 2 µL of test compound, which had been preprepared as stock solutions in ethanol to furnish the concentration range of the study, 0.1–50 μM, and re-incubated for a further 72 h at 37°C in a humidified atmosphere containing 5% CO2. The culture medium was then removed, and the cells were washed with 100 µL of PBS, and 100 µL of MTT was added, to reach a final concentration of 1 mg/ml of MTT. The cells were incubated for 3 h in darkness at 37°C. After removal of MTT solution, solubilization was initiated through the addition of […] of DMSO, and the cells were maintained at room temperature in darkness for 20 min to ensure thorough color diffusion before reading the absorbance with a microplate reader at 570 nm. The results were expressed as percentage viability relative to vehicle control (100%). The dose–response curves were plotted, and the IC50 values (concentration of drug resulting in 50% reduction in cell survival) were obtained using the commercial software package Prism (GraphPad® Software, Inc., La Jolla, CA, USA). All the experiments were repeated in at least three independent experiments.
Background: Formazan colour is commonly taken as a measure of viable cells.

Where two headings read alike, the source gives them in different places.

In data set [1] (mouse liver microsomes, 37°C, t1/2), `COc1ccc(/C=C2\N=C(C)N(c3ccc(CC(=O)NCc4ccccc4)cc3)C2=O)cc1` [Compound 4c, (Z)-N-Benzyl-2-(4-(4-(4-methoxybenzylidene)-2-methyl-5-oxo-4,5-dihydro-1H-imidazol-1-yl)phenyl)acetamide] came in with an MLM stability of 14.8 min. The “% Remaining in MLM with NADPH” value in data set [1] (with NADPH, >60 min, listed as KIM-161) is “unchanged”. In data set [1] (without NADPH, >60 min, listed as KIM-161), the “% Remaining in MLM without NADPH” value is on record as “Unchanged >60 min”. The half-maximal inhibitory concentration (IC50) stood at 294 nM in data set [2] (HCT116, MTT, 72 h, read-out: IC50 ± SEM HCT116) and 294 nM in data set [2] (HCT116 colon cancer, abstract, read-out: cytotoxic IC50 HCT116).

Broadly, the IC50 is the concentration at which inhibition is half-maximal.
